Measured values: PubChem BioAssay AID1845205 (Molecular Pharmacology Branch, DTP, NCI, 2023)

Test system: MPNST multicellular tumor spheroids, viability % test/control
Experiment: Anticancer human tumor MPNST cell line growth inhibition;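 note: spheroids exposed to agents for seven days after three days of growth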;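 for viability, T/C: luminescence signal used as surrogate for viable cell amount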
Conditions: for IC50: curve of first compound; for viability, T/C: stronger effect = lower value
Outline: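 Complex spheroids of malignant cells with endothelial cells and mesenchymal stem cells; agents alone or combined, from near clinical Cmax (or 10 microM if unknown) down in half-log steps, 0.25% DMSO final.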

[1] = second compound 1 µM, first compound 0.0316 µM
[2] = second compound 1 µM, first compound 0.1 µM
[3] = second compound 1 µM, first compound 0.316 µM
[4] = second compound 1 µM, first compound 1 µM
[5] = second compound 1 µM, first compound 3.16 µM
[6] = second compound 1 µM, first compound 10 µM
[7] = second compound 3.16 µM, first compound 0.0316 µM
[8] = second compound 3.16 µM, first compound 0.1 µM
[9] = second compound 3.16 µM, first compound 0.316 µM
[10] = second compound 3.16 µM, first compound 1 µM
[11] = second compound 3.16 µM, first compound 3.16 µM
[12] = second compound 3.16 µM, first compound 10 µM
[13] = second compound 10 µM, first compound 0.0316 µM
[14] = second compound 10 µM, first compound 0.1 µM
[15] = second compound 10 µM, first compound 0.316 µM
[16] = second compound 10 µM, first compound 1 µM
[17] = second compound 10 µM, first compound 3.16 µM
[18] = second compound 10 µM, first compound 10 µM
[19] = second compound 31.6 µM, first compound 0.0316 µM
[20] = second compound 31.6 µM, first compound 0.1 µM
[21] = second compound 31.6 µM, first compound 0.316 µM
[22] = second compound 31.6 µM, first compound 1 µM
[23] = second compound 31.6 µM, first compound 3.16 µM
[24] = second compound 31.6 µM, first compound 10 µM
[25] = second compound 100 µM, first compound 0.0316 µM
[26] = second compound 100 µM, first compound 0.1 µM
[27] = second compound 100 µM, first compound 0.316 µM
[28] = second compound 100 µM, first compound 1 µM
[29] = second compound 100 µM, first compound 3.16 µM
[30] = second compound 100 µM, first compound 10 µM

| Structure (SMILES) | IC50 (second compound 1 µM) [nM] | IC50 (second compound 3.16 µM) [nM] | IC50 (second compound 10 µM) [nM] | IC50 (second compound 31.6 µM) [nM] | IC50 (second compound 100 µM) [nM] | viability, T/C [1] [%] | viability, T/C [2] [%] | viability, T/C [3] [%] | viability, T/C [4] [%] | viability, T/C [5] [%] | viability, T/C [6] [%] | viability, T/C [7] [%] | viability, T/C [8] [%] | viability, T/C [9] [%] | viability, T/C [10] [%] | viability, T/C [11] [%] | viability, T/C [12] [%] | viability, T/C [13] [%] | viability, T/C [14] [%] | viability, T/C [15] [%] | other results |
| --- | --- | --- | --- | --- | --- | --- | --- | --- | --- | --- | --- | --- | --- | --- | --- | --- | --- | --- | --- | --- | --- |
| CC1COCCN1c1cc(-c2ccnn2C)c2ccnc(-c3ccn[nH]3)c2n1 (stereo not given) + Cn1nnc2c(C(N)=O)ncn2c1=O | 198 | 238 | 142 | 386 | 182 | 62 | 55.8 | 45.8 | 39.7 | 34.1 | 35.3 | 62.2 | 56.2 | 47.9 | 39.5 | 31 | 31.9 | 64.2 | 52.2 | 45.2 | viability, T/C [16]: 38.2%; viability, T/C [17]: 35.9%; viability, T/C [18]: 34.4%; viability, T/C [19]: 61.8%; viability, T/C [20]: 57.1%; viability, T/C [21]: 52.5%; viability, T/C [22]: 41.2%; viability, T/C [23]: 32.2%; viability, T/C [24]: 31.5%; viability, T/C [25]: 63.6%; viability, T/C [26]: 54.4%; viability, T/C [27]: 46.1%; viability, T/C [28]: 37.1%; viability, T/C [29]: 30.2%; viability, T/C [30]: 31.8% |
| COc1cc(C)[nH]c(=O)c1CN1CCc2c(Cl)cc(C(OC)C3COC3)c(Cl)c2C1=O (stereo not given) + Cn1nnc2c(C(N)=O)ncn2c1=O | > 10000 | > 10000 | > 10000 | > 10000 | > 10000 | 89.9 | 80.4 | 78.7 | 88.5 | 94.2 | 107 | 87.7 | 84.4 | 122 | 97.4 | 150 | 95.9 | 81.5 | 106 | 101 | viability, T/C [16]: 97.8%; viability, T/C [17]: 99.9%; viability, T/C [18]: 92.8%; viability, T/C [19]: 79.1%; viability, T/C [20]: 74%; viability, T/C [21]: 92.5%; viability, T/C [22]: 81.7%; viability, T/C [23]: 103%; viability, T/C [24]: 82.7%; viability, T/C [25]: 84%; viability, T/C [26]: 82.7%; viability, T/C [27]: 70.7%; viability, T/C [28]: 80.6%; viability, T/C [29]: 80.7%; viability, T/C [30]: 86.5% |
| COc1ccc([C@@H](O)c2cc(-c3ncnc4cc(N5CCOCC5)ccc34)c(F)cc2Cl)nn1 + Cn1nnc2c(C(N)=O)ncn2c1=O | 1650 | 1510 | 1820 | 2070 | 1580 | 93.3 | 90.2 | 73.2 | 59 | 39.5 | 23 | 76.4 | 99.1 | 80 | 57.7 | 35.9 | 23.4 | 86.8 | 74.9 | 73 | viability, T/C [16]: 65.5%; viability, T/C [17]: 36.6%; viability, T/C [18]: 24.2%; viability, T/C [19]: 81.2%; viability, T/C [20]: 72.8%; viability, T/C [21]: 75.2%; viability, T/C [22]: 66.5%; viability, T/C [23]: 40.4%; viability, T/C [24]: 26.4%; viability, T/C [25]: 76.3%; viability, T/C [26]: 90.8%; viability, T/C [27]: 68.4%; viability, T/C [28]: 57.7%; viability, T/C [29]: 39.7%; viability, T/C [30]: 25.6% |
